For 1 molecule, Activity and Kd results are on record in ChEMBL document CHEMBL5505982, “Design, synthesis, biological evaluation and in silico studies of novel quinoline derivatives as potential radioprotective molecules targeting the TLR2 and p53 pathways” (Eur J Med Chem, 2024).

Test [1] deals with AHH-1. The experiment in a line: Anti-iradiation activity against human AHH-1 cells assessed as cell viability at 10 micromol preincubated with compound for 24 hrs followed by irradiation with 8 Gy and measured after 24 hrs by CCK-8 assay. Type of test: functional. Particulars: dose 10 µmol; time 48 hrs. A general note: Formazan colour is commonly taken as a measure of viable cells.

Test [2] concerns Mus musculus. Put plainly: Radioprotective activity in irradiated C57BL/6J mouse model assessed as increase in WBC count at 300 mg/kg, ip preincubated with compound for 15 to 1440 mins followed by irradiation with 6.5 Gy and measured after 10 to 13 days of radiation relative to Ex-RAD/control. The format is functional, organism-based.
For test [3], the system named is Mus musculus. Put plainly: Radioprotective activity in irradiated C57BL/6J mouse model assessed as increase in RBC count at 300 mg/kg, ip preincubated with compound for 15 to 1440 mins followed by irradiation with 6.5 Gy and measured after 13 days of radiation. The format is functional, organism-based. Particulars: Erythrocyte, time 15-20160 min.
Test [4] deals with Mus musculus. Put plainly: Radioprotective activity in irradiated C57BL/6J mouse model assessed as increase in platelets count at 300 mg/kg, ip preincubated with compound for 15 to 1440 mins followed by irradiation with 6.5 Gy and measured after 3 to 10 days of radiation. The format is functional, organism-based.
Test [5] concerns Mus musculus. Put plainly: Radioprotective activity in irradiated C57BL/6J mouse model assessed as increase in HGB count at 300 mg/kg, ip preincubated with compound for 15 to 1440 mins followed by irradiation with 6.5 Gy and measured after 10 days of radiation relative to Ex-rad/control. Type of test: functional, organism-based. Conditions: time 15-15840 min.
For test [6], the system named is AHH-1. Put plainly: Induction of apoptosis in human AHH-1 cells assessed as viable cells preincubated with compound for 24 hrs followed by irradiation with 4 Gy and measured after 24 hrs of radiation by Annexin V-FITC/PI staining based flow cytometry analysis (reference value: 66.9 %). Conditions: time 48 hrs. The format is functional. Background: Flow cytometry measures light scatter and fluorescence of single cells or particles in a stream.

Test [7] deals with AHH-1. The experiment in a line: Induction of apoptosis in human AHH-1 cells assessed as early apoptotic cells preincubated with compound for 24 hrs followed by irradiation with 4 Gy and measured after 24 hrs of radiation by Annexin V-FITC/PI staining based flow cytometry analysis (reference value: 14.3%). Type of test: functional. Particulars: time 48 hrs.
Test [8] deals with AHH-1. Put plainly: Induction of apoptosis in human AHH-1 cells assessed as necrotic cells preincubated with compound for 24 hrs followed by irradiation with 4 Gy and measured after 24 hrs of radiation by Annexin V-FITC/PI staining based flow cytometry analysis (reference value: 1.06%). Type of test: functional. Particulars: time 48 hrs.
For test [9], the system named is AHH-1. Put plainly: Induction of apoptosis in human AHH-1 cells assessed as late apoptotic cells preincubated with compound for 24 hrs followed by irradiation with 6 Gy and measured after 24 hrs of radiation by Annexin V-FITC/PI staining based flow cytometry analysis (reference value: 29.8%). The format is functional. Particulars: time 48 hrs.
In test [10] the test system is AHH-1. The experiment in a line: Induction of apoptosis in human AHH-1 cells assessed as necrotic cells preincubated with compound for 24 hrs followed by irradiation with 6 Gy and measured after 24 hrs of radiation by Annexin V-FITC/PI staining based flow cytometry analysis (reference value: 3.71%). Type of test: functional. Conditions: time 48 hrs.
The subject of test [11] is AHH-1. Put plainly: Induction of apoptosis in human AHH-1 cells assessed as late apoptotic cells preincubated with compound for 24 hrs followed by irradiation with 8 Gy and measured after 24 hrs of radiation by Annexin V-FITC/PI staining based flow cytometry analysis (reference value: 33.6%). The format is functional. Conditions: time 48 hrs.
The target of test [12] is T1, Toll-like receptor 2 (Homo sapiens, UniProt O60603). The experiment in a line: Binding affinity to TLR2 (unknown origin) assessed as dissociation constant by SPR analysis. On the technique in general: SPR reads the build-up and loss of mass on a sensor chip optically.
T1 sequence (O60603 whole entry): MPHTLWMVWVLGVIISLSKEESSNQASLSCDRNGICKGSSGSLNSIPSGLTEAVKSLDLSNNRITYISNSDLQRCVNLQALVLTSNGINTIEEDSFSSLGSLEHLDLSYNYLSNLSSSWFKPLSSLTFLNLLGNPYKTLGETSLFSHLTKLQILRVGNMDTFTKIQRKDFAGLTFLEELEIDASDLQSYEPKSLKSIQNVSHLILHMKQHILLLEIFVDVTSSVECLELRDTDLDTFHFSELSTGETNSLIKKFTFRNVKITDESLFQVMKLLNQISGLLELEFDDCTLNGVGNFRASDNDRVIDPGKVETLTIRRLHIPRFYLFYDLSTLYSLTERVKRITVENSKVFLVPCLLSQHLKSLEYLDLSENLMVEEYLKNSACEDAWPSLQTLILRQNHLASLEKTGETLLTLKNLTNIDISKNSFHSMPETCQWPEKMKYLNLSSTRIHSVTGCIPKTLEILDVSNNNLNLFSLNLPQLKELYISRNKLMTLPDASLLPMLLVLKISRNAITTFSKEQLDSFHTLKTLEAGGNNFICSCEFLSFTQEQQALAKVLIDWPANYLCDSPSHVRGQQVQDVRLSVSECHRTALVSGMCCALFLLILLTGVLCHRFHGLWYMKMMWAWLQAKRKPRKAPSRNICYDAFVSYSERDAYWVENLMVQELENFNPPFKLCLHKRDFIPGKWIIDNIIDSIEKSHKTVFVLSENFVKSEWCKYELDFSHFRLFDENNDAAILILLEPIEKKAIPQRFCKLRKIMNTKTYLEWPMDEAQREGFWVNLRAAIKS
Test [13] addresses T1, Toll-like receptor 2. The experiment in a line: Binding affinity to TLR2 (unknown origin) by SPR analysis. Conditions: filed as agonist, dose 3-100 µM.

The structures appear in SMILES notation. Activity calls are given as the source filed them. No cut-off for these calls is given here.

For `[O-][S+](Cc1ccc(F)cc1)c1ccc2cc(Br)ccc2n1` (stereo not drawn), the Activity in [1] is recorded as 55.86%; in test [6] it was 72.4%; in [7], 14%; in test [8], 1.4%; in test [9], 16.2%; in [10] it was 2.55%. In addition, the Activity in [11] was 17.8%; in [13], “Dose-Dependent Effect”. Further, the result in test [2], in [3] and in [5] was Active. Besides, the result in [4] was inactive. For the same molecule, the Kd in test [12] was 3.56 µM.

Broadly, the Kd is the concentration at which binding is half-saturated.
